For 4 compounds, IC50 and inhibition results are on record in patent EP1144369B1 (Wyeth Holdings Corporation, priority 1999, dated 2000).

One test addresses MMP-9 (Homo sapiens, UniProt P14780). Briefly: MMP-9 inhibition (thiopeptide or fluorescent peptide substrate). The class given is biochemical. As to the method: (§1) The enzyme activity is measured by the rate of the color increase. The thiopeptide substrate is made up fresh as a 20 mM stock in 100% DMSO and the DTNB is dissolved in 100% DMSO as a 100 mM stock and stored in the dark at room temperature. Both the substrate and DTNB are diluted together to 1 mM with substrate buffer (50 mM HEPES pH 7.5, 5 mM CaCl2) before use. The stock of enzyme is diluted with buffer (50 mM HEPES, pH 7.5, 5 mM CaCl2, 0.02% Brij) to the desired final concentration.
(§2) Alternatively, a fluorescent peptide substrate is used. In this test procedure, the peptide substrate contains a fluorescent group and a quenching group. Upon cleavage of the substrate by an MMP, the fluorescence that is generated is quantitated on the fluorescence plate reader. The assay is run in HCBC assay buffer (50mM HEPES, pH 7.0, 5 mM Ca^+2, 0.02% Brij, 0.5% Cysteine), with human recombinant MMP-1, MMP-9, or MMP-13. The substrate is dissolved in methanol and stored frozen in 1 mM aliquots. For the assay, substrate and enzymes are diluted in HCBC buffer to the desired concentrations. Compounds are added to the 96 well plate containing enzyme and the reaction is started by the addition of substrate.
(§3) For either the thiopeptide or fluorescent peptide test procedures, the slope of the line is calculated and represents the reaction rate. The linearity of the reaction rate is confirmed (r^2 >0.85). The mean (x±sem) of the control rate is calculated and compared for statistical significance (p<0.05) with drug-treated rates using Dunnett's multiple comparison test.

Another test concerns the target T1, MMP-1 (Homo sapiens, UniProt P03956).
T1 sequence (P03956 100-469): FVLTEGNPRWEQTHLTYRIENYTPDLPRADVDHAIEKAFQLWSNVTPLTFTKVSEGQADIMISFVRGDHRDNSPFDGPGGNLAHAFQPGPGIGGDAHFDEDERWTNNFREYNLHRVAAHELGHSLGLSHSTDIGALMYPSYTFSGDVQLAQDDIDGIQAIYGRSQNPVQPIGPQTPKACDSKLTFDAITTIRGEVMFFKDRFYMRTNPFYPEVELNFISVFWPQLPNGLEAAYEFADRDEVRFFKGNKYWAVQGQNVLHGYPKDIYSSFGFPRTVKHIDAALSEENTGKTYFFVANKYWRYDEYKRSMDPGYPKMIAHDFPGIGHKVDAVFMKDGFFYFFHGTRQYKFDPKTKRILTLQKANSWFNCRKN
Briefly: MMP-1 inhibition (thiopeptide or fluorescent peptide substrate). The class given is biochemical. The following applies: for IC50: plain number = IC50; for inhibition at 10 µM: read-out: IC50 (nM) or % Inhibition (µM) MMP-1. As to the method:
as §1, §2, §3

Test [1] deals with TNF-α converting enzyme (TACE) (Homo sapiens, UniProt P78536). Briefly: TACE inhibition (fluorescent peptidyl substrate). The class given is biochemical. The following applies: read-out: IC50 (nM) or % Inhibition (µM) TACE. On the procedure: Using 96-well black microtiter plates, each well receives a solution composed of 10 µL TACE (final concentration 1µg/mL), 70µL Tris buffer, pH 7.4 containing 10% glycerol (final concentration 10 mM), and 10 µL of test compound solution in DMSO (final concentration 1µM, DMSO concentration <1%) and incubated for 10 minutes at room temperature. The reaction is initiated by addition of a fluorescent peptidyl substrate (final concentration 100 µM) to each well and then shaking on a shaker for 5 sec.
The reaction is read (excitation 340 nm, emission 420 nm) for 10 min. and the increase in fluorescence over time is plotted as a linear line. The slope of the line is calculated and represents the reaction rate.
The linearity of the reaction rate is confirmed (r^2 >0.85). The mean (x±sem) of the control rate is calculated and compared for statistical significance (p<0.05) with drug-treated rates using Dunnett's multiple comparison test.

A further test relates to THP-1 cells. Briefly: THP-1 soluble protein assay (LPS-stimulated human monocytic THP-1 cells). The class given is cell-based. The following applies: Homo sapiens, LPS-stimulated THP-1 cells, read-out: % Inhib. @ 3µM THP. The text has this: Mitogenic stimulation of THP-1 cells cause differentiation into macrophage like cells with concomitant secretion of tumor necrosis factor (TNF-a) and TNF receptor (TNF-R p75/80 and TNF-R p55/60) and Interleukin-8 (IL-8), among other proteins. In addition, non-stimulated THP-1 cells shed both the p75/80 and the p55/60 receptors over time. The release of membrane bound TNF-α and possibly TNF-R p75/80 and TNF-R p55/60, but not IL-8, is mediated by an enzyme called TNF-a converting enzyme or TACE.
THP-1 cells (from ATCC) are a human monocytic cell line which were obtained from the peripheral blood of a person with acute monocytic leukemia. They can be grown in culture and differentiated into macrophage like cells by stimulation with mitogens.
Each vial of cells are cultured for about two weeks prior to being used for an assay and then are used for only 4 to 6 weeks to screen compounds.
Cell exposure to DMSO was limited to 0.1 % final concentration. […] Compounds can be evaluated for their effect on basal (non-stimulated) shedding of the receptors by replacing the LPS with […] of THP-1 media. Plates are placed into an incubator set at 5% CO2 and at 37°C. After 4 hours of incubation, […] of tissue culture supernatant (TCS) is removed for use in an TNF-a ELISA. Following 24 hours of incubation, […] of TCS is removed and used for analysis in TNF-R p75/80, TNF-R p55/60 and IL-8 ELISAs.
In addition, at the 24 hours timepoint, and the cells for each treatment group are collected by resuspension in 500 µl/well of THP-1 media and transferred into a FACS tube. […] The samples are run on a Becton Dickinson FaxCaliber FLOW cytometry machine and the amount of dye taken up by each cell is measured in the high red wavelength (FL3). Only cells with compromised membranes (dead or dying) can take up PI. The percent of live cells is calculated by the number of cells not stained with PI, divided by the total number of cells in the sample. The viability values calculated for the drug treated groups were compared to the viability value calculated for the vehicle treated mitogen stimulated group ("vehicle positive control") to determine the "percent change from control". This "percent change from control" value is an indicator of drug toxicity.
The quantity of soluble TNF-a, TNF-R p75/80 and TNF-R p55/60 and IL-8 in the TCS of the THP-1 cell cultures are obtained with commercially available ELISAs from R&D Systems, by extrapolation from a standard curve generated with kit standards. The number of cells that either take up or exclude PI are measured by the FLOW cytometry machine and visualized by histograms using commercially available Cytologic software for each treatment group including all controls.
Biological variability in the magnitude of the response of THP-1 cell cultures requires that experiments be compared on the basis of percent change from "vehicle positive control" for each drug concentration. Percent change in each soluble protein evaluated from the "vehicle positive control" was calculated for each compound concentration with the following formula: % Change =(pg/ml(compound) - pg/ml (veh pos control))/(pg/ml (veh pos control) - pg/ml(veh neg control))x 100 [formula]
For the soluble protein (TNF-a, p75/80, p55/60, IL-8) studies under stimulated conditions, the mean pg/ml of duplicate wells were determined and the results expressed as percent change from "vehicle positive control". For the soluble protein (p75/80 and p55/60 receptors) studies under non-stimulated conditions, the mean pg/ml of duplicate wells were determined and the results expressed as percent change from "vehicle positive control" utilizing the following formula: % Change =(pg/ml (compound neg control) - pg/ml (veh neg control)/(pg/ml (veh neg control))X 100 [formula]
IC50 values for each compound are calculated by non-linear regression analysis using customized software utilizing the JUMP statistical package.

A further test has as its target MMP-13 (Homo sapiens, UniProt P45452). Briefly: MMP-13 inhibition (thiopeptide or fluorescent peptide substrate). The class given is biochemical. On the procedure: as §1, §2, §3

TNF-α converting enzyme (TACE), sequence (P78536 215-824, species assumed): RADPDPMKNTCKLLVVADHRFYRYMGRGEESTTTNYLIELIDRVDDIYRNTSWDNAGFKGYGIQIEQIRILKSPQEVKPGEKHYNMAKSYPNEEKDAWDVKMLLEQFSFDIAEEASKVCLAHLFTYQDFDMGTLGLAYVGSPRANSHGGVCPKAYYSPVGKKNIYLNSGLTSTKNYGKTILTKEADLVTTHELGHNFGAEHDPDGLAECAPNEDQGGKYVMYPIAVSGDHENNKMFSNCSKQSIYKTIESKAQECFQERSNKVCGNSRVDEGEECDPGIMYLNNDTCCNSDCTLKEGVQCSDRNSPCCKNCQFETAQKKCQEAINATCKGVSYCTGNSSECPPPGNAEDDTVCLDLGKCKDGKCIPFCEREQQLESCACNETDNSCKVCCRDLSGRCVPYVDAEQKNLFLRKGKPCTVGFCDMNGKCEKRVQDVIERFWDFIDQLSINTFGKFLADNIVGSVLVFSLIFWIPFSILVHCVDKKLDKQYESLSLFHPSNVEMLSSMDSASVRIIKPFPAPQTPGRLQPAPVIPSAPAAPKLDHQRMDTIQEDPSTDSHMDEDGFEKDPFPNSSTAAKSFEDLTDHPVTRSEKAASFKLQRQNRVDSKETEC
MMP-9, sequence (P14780 94-707): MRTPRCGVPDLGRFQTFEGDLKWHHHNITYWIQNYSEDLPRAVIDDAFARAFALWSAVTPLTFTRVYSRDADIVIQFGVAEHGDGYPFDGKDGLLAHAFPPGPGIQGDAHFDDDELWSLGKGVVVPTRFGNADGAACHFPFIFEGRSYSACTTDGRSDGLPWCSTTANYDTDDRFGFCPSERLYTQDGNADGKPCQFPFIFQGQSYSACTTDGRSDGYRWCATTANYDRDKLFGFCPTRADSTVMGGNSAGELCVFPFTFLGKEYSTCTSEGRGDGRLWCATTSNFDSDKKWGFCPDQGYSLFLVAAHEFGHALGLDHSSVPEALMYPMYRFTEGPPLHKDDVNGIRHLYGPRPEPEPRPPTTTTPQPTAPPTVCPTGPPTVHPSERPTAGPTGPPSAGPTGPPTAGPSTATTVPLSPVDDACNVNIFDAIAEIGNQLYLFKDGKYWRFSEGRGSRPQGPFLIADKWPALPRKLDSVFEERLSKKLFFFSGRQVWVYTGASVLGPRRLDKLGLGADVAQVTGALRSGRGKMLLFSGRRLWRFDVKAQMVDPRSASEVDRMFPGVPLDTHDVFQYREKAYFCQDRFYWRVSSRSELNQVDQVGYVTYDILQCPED

A word on the IC50: it is the concentration needed to halve the response being measured. On to `COCC#CCOc1ccc(S(=O)(=O)N(C)c2c(C)cc(Br)cc2C(=O)NO)cc1` [Example 58, 5-Bromo-N-hydroxy-2-{[4-(4-methoxy-but-2-ynyloxy)-benzenesulfonyl]-methyl-amino}-3-methyl-benzamide], for which the IC50 is 387 nM at MMP-9, 7800 nM at MMP-1, 11 nM in test [1] and 233 nM on MMP-13. Moreover, the inhibition at 3 µM with THP-1 cells is 46%.

As to `Cc1cc(Br)cc(C(=O)NO)c1N(C)S(=O)(=O)c1ccc(OCC#CCNCCN(C)C)cc1` [Example 34, 5-Bromo-2-({4-[4-(2-dimethylamino-ethylamino)-but-2-ynyloxy]-benzenesulfonyl}-methyl-amino)-N-hydroxy-3-methyl-benzamide], the figures for the IC50 (against MMP-9; in test [1]; against MMP-13) were 790 nM, 127 nM and 383 nM, respectively. Moreover, on MMP-1, the inhibition at 10 µM came to 39%. Also, in the test with THP-1 cells, the inhibition at 3 µM came to 22%.

Consider `Cc1cc(Br)cc(C(=O)NO)c1N(C)S(=O)(=O)c1ccc(OCC#CCNCCCN(C)C)cc1` [Example 33, 5-Bromo-2-({4-[4-(3-dimethylamino-propylamino)-but-2-ynyloxy]-benzenesulfonyl}-methyl-amino)-N-hydroxy-3-methyl-benzamide], for which the results for the IC50 (against MMP-9; in test [1]; at MMP-13) were 1200 nM, 29 nM and 908 nM, respectively. The inhibition at 10 µM at MMP-1 was determined as 32%. The inhibition at 3 µM in the test on THP-1 cells worked out at 14%.

Take `COc1ccc(C#CCOc2ccc(S(=O)(=O)N(C)c3c(C)cc(Br)cc3C(=O)NO)cc2)cc1` [Example 62, 5-Bromo-N-hydroxy-2-({4-[3-(4-methoxy-phenyl)-prop-2-ynyloxy]-benzenesulfonyl}-methyl-amino)-3-methyl-benzamide]: the IC50 against MMP-9 stood at 901 nM; against MMP-1, 3600 nM; in test [1], 104 nM; at MMP-13, 588 nM. Moreover, the inhibition at 3 µM in the test on THP-1 cells was 15%.
